In brackets after ≈: the same amount, converted by molar mass. Like-named read-outs stand apart in the source and are kept apart here.
What was measured:
RUP3 = biological target: T1, RUP3 (Homo sapiens, UniProt Q8TDV5); test: RUP3 dose responses in melanophores (melanophore dispersion assay); assay type: cell-based
T1 construct: ID; No:2; expressed in transfected cells; host or cells: melanophores (cultured as per Potenza and Lerner 1992), electroporated
T1 sequence (Q8TDV5 with tags, fused parts or gaps): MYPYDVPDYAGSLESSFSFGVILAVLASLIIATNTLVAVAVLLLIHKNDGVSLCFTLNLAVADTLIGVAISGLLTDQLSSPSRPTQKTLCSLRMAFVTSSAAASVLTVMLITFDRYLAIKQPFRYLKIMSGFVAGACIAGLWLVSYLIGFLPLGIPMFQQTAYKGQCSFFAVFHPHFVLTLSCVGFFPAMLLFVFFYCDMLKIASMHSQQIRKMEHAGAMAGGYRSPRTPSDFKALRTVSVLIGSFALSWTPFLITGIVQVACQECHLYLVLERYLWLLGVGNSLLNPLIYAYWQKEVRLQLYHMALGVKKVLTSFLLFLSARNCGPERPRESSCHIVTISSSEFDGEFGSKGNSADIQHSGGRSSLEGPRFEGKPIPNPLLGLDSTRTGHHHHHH
Protocol: Melanophores are maintained in culture as reported by Potenza, M. N. and Lerner, M. R., in Pigment Cell Research, Vol. 5, 372-378, 1992 and transfected with the RUP3 expression vector (pCMV) using electroporation. Following electroporation, the transfected cells are plated into 96 well plates for the assay. The cells are then allowed to grow for 48 hours in order to both recover from the electroporation procedure and attain maximal receptor expression levels.
On the assay day, the growth medium on the cells is replaced with serum-free buffer containing 10 nM melatonin. The melatonin acts via an endogenous Gi-coupled GPCR in the melanophores to lower intracellular cAMP levels. In response to lowered cAMP levels, the melanophores translocate their pigment to the center of the cell. The net effect of this is a significant decrease in the absorbance reading of the cell monolayer in the well, measured at […].
After a 1-hour incubation in melatonin, the cells become completely pigment-aggregated. At this point a baseline absorbance reading is collected. Serial dilutions of test compounds are then added to the plate and compounds that stimulate RUP3 produce increases in intracellular cAMP levels. In response to these increased cAMP levels, the melanophores translocate their pigment back into the cell periphery. After one hour, stimulated cells are fully pigment-dispersed. The cell monolayer in the dispersed state absorbs much more light in the 600-650 nm range. The measured increase in absorbance compared to the baseline reading allows one to quantitate the degree of receptor stimulation and plot a dose-response curve.
The compounds in the above examples were screened using the melanophore dispersion assay, as described above.

Aqueous solubility = assay type: physicochemical; details: aqueous medium, aqueous buffer
Male C57b1/6J mice = test: Oral glucose tolerance test (oGTT) in mice; assay type: in vivo; details: for lowering of blood glucose in oGTT (in words): mice after challenge with glucose; for Mean % Inhibition of Glucose Excursion: oGTT, mice, p.o.
Protocol: A. Oral Glucose tolerance test (oGTT)
[…] Compounds were delivered orally via a gavage needle (p.o., volume 10 mL/Kg). At time 0, levels of blood glucose were assessed using a glucometer (Elite XL, Bayer), and mice were administered either vehicle (20% hydroxypropyl-beta-cyclodextrin) or test compound. Thirty minutes after administration of test compound, levels of blood glucose were again assessed, and mice were administered dextrose orally at a dose of 3 g/Kg. Blood glucose measurements were then taken 20 min, 40 min, 60 min and 120 min after this time.

[1] = Rat dose-range PK study (dose escalation pharmacokinetics); assay type: in vivo
Protocol: Animal, Compound Formulation, Dosing, and Blood Sample Collection: […]
Male SD rats (250-300 g) were purchased from Charles River Laboratory; upon reciept, animals were placed under light-dark cycle (6:30 am-6:30 pm lights on). They were allowed ad libitum access to water and 4 pieces of food daily (Purina Meals Rodent Diet, Product Number 5001).
Compound formulations were prepared as following: The IV injection formulation was prepared in 20% hydroxypropyl-beta-cyclodextrin with concentration of […]. The PO formulations were prepared in 0.5% hydroxypropyl methylcellulose with concentrations of […]. […]
Plasma samples were prepared as follows. […] Calibration standards were typically prepared in the range of 2.0 ng/mL to 10 μg/mL with linear regression for quantitation. […]
Results were calculated by noncompartmental analysis using WinNonlin Pro version 3.1 based on plasma concentration—time profiles for individual animals. Plasma levels were determined as described above and the oral and intravenous area under the concentration vs. time curve (AUC was calculated using the linear trapezoidal rule up to the last measurable concentration and was then extrapolated to infinity) were compared to determine the % bioavailability (% F) by the following formula: Dose (IV)*AUC (oral)/Dose (oral)*AUC (IV). […]

[2] = melanophore dispersion assay, read-out: RUP3 (EC50)

COc1c(Oc2ccc(S(C)(=O)=O)cc2F)ncnc1OC1CCN(C(=O)OC(C)C)CC1 [Compound 76, 4-[6-(2-Fluoro-4-methanesulfonyl-phenoxy)-5-methoxy-pyrimidin-4-yloxy]-piperidine-1-carboxylic acid isopropyl ester]
EC50 (RUP3; [2]): 2.51 nM

COc1c(Nc2ccc(NCCO)nc2C)ncnc1OC1CCN(C(=O)OC(C)C)CC1 [Compound 78, 4-{6-[6-(2-Hydroxy-ethylamino)-2-methyl-pyridin-3-ylamino]-5-methoxy-pyrimidin-4-yloxy}-piperidine-1-carboxylic acid isopropyl ester]
solubility (Aqueous solubility; pH=2): 1450 µg/mL (≈ 3150 µM) | solubility (Aqueous solubility; pH=5): 380 µg/mL (≈ 825 µM)

CCOc1cc(F)c(Nc2ncnc(OC3CCN(C(=O)OC(C)C)CC3)c2OC)cc1F [Compound 75, 4-[6-(4-Ethoxy-2,5-difluoro-phenylamino)-5-methoxy-pyrimidin-4-yloxy]-piperidine-1-carboxylic acid isopropyl ester]
lowering of blood glucose in oGTT (in words) (Male C57b1/6J mice): lowered blood glucose in a dose-dependent manner | Mean % Inhibition of Glucose Excursion (Male C57b1/6J mice; dose 3 mg/Kg): 22% | Mean % Inhibition of Glucose Excursion (Male C57b1/6J mice; dose 10 mg/Kg): 34%

COc1c(OC2CCN(C(=O)OC(C)C)CC2)ccnc1Nc1ccc(S(C)(=O)=O)cc1F [Compound 77, 4-[2-(2-Fluoro-4-methanesulfonyl-phenylamino)-3-methoxy-pyridin-4-yloxy]-piperidine-1-carboxylic acid isopropyl ester]
solubility (Aqueous solubility; pH=2): 1120 µg/mL (≈ 2330 µM) | solubility (Aqueous solubility; pH=5): 190 µg/mL (≈ 395 µM)

COc1c(Nc2ccc(S(C)(=O)=O)cc2F)ncnc1OC1CCN(C(=O)OC(C)C)CC1 [Compound 24, 4-[6-(2-Fluoro-4-methanesulfonyl-phenylamino)-5-methoxy-pyrimidin-4-yloxy]-piperidine-1-carboxylic acid isopropyl ester]
EC50 (RUP3; [2]): 0.49 nM

COc1c(Nc2ccc(S(C)(=O)=O)nc2C)ncnc1OC1CCN(C(=O)OC(C)C)CC1 [Compound 84, 4-[6-(6-Methanesulfonyl-2-methyl-pyridin-3-ylamino)-5-methoxy-pyrimidin-4-yloxy]-piperidine-1-carboxylic acid isopropyl ester]
reduction in AUC (blood glucose, oGTT) (Male C57b1/6J mice; Experiment 1, 30 mpk): 38% | reduction in AUC (blood glucose, oGTT) (Male C57b1/6J mice; Experiment 2, 30 mpk): 84% | lowering of blood glucose in oGTT (in words) (Male C57b1/6J mice): able to lower blood glucose | EC50 (RUP3): 3.55 nM | agonist activity at the RUP3 receptor (in words) (RUP3): potent agonist | dose escalation pharmacokinetics, AUC vs dose (in words) ([1]; FIG. 5): linear dose escalation pharmacokinetics | dose escalation pharmacokinetics, AUC vs dose (in words) ([1]; FIG. 5, listed as 4-[6-(6-Methanesulfonyl-2-methyl-pyridin-3-ylamino)-5-methoxy-pyrimidin-4-yloxy]): essentially linear dose escalation pharmacokinetics

COc1cc(S(C)(=O)=O)ccc1Nc1ncnc(OC2CCN(C(=O)OC(C)C)CC2)c1OC [Compound 10, 4-[6-(4-Methanesulfonyl-2-methoxy-phenylamino)-5-methoxy-pyrimidin-4-yloxy]-piperidine-1-carboxylic acid isopropyl ester]
EC50 (RUP3; [2]): 26 nM
